Measured values reported in article PMC12406204 (Journal of Medicinal Chemistry, 2025).

Assays:
CB2R = CB2R (Homo sapiens, UniProt P34972); assay: CB2R radioligand binding competition ([3H]CP55,940); design: expressed in transfected cells; host or cells: HEK-293T (HEK-CB2 cell line); conditions: for Ki: displacement of [3H]CP 55,940, membranes of HEK-293T cells, n = 3; for SI Ki CB1R/Ki CB2R: selectivity index, affinity ratio; for CB2R % at 1 μM: percentage displacement of specific [3H]CP 55,940 binding at 1 μM, n = 2
CB2R, sequence (P34972 whole entry): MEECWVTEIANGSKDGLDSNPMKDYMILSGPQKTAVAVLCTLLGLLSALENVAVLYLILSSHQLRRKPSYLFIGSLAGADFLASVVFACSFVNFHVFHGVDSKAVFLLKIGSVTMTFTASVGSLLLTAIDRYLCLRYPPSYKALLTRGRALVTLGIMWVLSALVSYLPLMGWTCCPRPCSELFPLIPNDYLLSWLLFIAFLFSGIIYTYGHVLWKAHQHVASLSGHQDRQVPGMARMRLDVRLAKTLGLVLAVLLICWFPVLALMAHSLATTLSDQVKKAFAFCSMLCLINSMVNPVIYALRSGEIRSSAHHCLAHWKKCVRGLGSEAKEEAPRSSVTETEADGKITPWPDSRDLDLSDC

CB1R = CB1R (Homo sapiens, UniProt P21554); assay: CB1R radioligand binding competition ([3H]CP55,940); design: host or cells: CHO-CB1 C3 cell line; conditions: for Ki: displacement of [3H]CP 55,940, membranes of CHO-CB1 C3 cells, n = 3; for CB1R % at 1 μM: percentage displacement of specific [3H]CP 55,940 binding at 1 μM, n = 2
CB1R, sequence (P21554 whole entry): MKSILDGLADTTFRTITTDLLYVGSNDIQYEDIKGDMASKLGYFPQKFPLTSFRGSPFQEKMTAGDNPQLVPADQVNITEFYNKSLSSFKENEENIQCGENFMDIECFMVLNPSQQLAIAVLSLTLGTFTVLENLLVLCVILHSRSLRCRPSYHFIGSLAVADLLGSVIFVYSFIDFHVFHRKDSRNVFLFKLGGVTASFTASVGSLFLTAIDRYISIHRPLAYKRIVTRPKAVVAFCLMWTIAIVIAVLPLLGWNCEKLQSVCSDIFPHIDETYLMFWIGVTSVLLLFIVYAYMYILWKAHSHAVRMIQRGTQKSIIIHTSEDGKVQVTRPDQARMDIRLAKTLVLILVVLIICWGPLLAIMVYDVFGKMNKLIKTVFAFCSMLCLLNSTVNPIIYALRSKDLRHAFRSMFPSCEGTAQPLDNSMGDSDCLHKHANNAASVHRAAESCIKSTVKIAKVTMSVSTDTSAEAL

| Compound | Ki (CB2R) [nM] | SI Ki CB1R/Ki CB2R (CB2R) | Ki (CB1R) [nM] | CB2R % at 1 μM (CB2R) [%] | CB1R % at 1 μM (CB1R) [%] |
| --- | --- | --- | --- | --- | --- |
| CCCCCn1cc(C(=O)N2CCC[C@H]2C(=O)OC)c2ccccc21 [15a] | 189 ± 10 | 0.6 | 121 ± 6 |  |  |
| CCCCCn1cc(C(=O)N2CCC[C@@H]2C(=O)OC)c2ccccc21 [15b] |  |  |  | 25 | 4 |
| COC(=O)[C@@H]1CCCN1C(=O)c1cn(CCCCCF)c2ccccc12 [15c] | 71.7 ± 2 | 0.8 | 55.9 ± 2.7 |  |  |
| COC(=O)[C@H]1CCCN1C(=O)c1cn(CCCCCF)c2ccccc12 [15d] |  |  |  | 26 | 3 |
| COC(=O)[C@@H]1CCCN1C(=O)c1cn(CC2CCCCC2)c2ccccc12 [15e] | 38.3 ± 2.1 | 0.3 | 11.3 ± 0.5 |  |  |
| COC(=O)[C@H]1CCCN1C(=O)c1cn(CC2CCCCC2)c2ccccc12 [15f] | 463 ± 11 | >100 |  |  | 32 |
| COC(=O)[C@@H]1CCCN1C(=O)c1cn(Cc2ccc(F)cc2)c2ccccc12 [15g] | 47.7 ± 1.9 | 0.3 | 14.4 ± 0.6 |  |  |
| COC(=O)[C@H]1CCCN1C(=O)c1cn(Cc2ccc(F)cc2)c2ccccc12 [15h] | 599 ± 13 | >100 |  |  | 10 |
| CCCCCn1nc(C(=O)N2CCC[C@H]2C(=O)OC)c2ccccc21 [15i] | 75.9 ± 2.2 | 4 | 337 ± 9 |  |  |
| CCCCCn1nc(C(=O)N2CCC[C@@H]2C(=O)OC)c2ccccc21 [15j] | 208 ± 5 | >100 |  |  | 4 |
| COC(=O)[C@@H]1CCCN1C(=O)c1nn(CCCCCF)c2ccccc12 [15k] | 41.9 ± 2.1 | 4 | 173 ± 5 |  |  |
| COC(=O)[C@H]1CCCN1C(=O)c1nn(CCCCCF)c2ccccc12 [15l] | 513 ± 3 | >100 |  |  | 1 |
| COC(=O)[C@@H]1CCCN1C(=O)c1nn(CC2CCCCC2)c2ccccc12 [15m] | 20.7 ± 0.6 | 3 | 73.4 ± 2.9 |  |  |
| COC(=O)[C@H]1CCCN1C(=O)c1nn(CC2CCCCC2)c2ccccc12 [15n] | 99.3 ± 2.8 | >100 |  |  | 2 |
| COC(=O)[C@@H]1CCCN1C(=O)c1nn(Cc2ccc(F)cc2)c2ccccc12 [15o] | 16.5 ± 1.1 | 3 | 46.2 ± 2.3 |  |  |
| COC(=O)[C@H]1CCCN1C(=O)c1nn(Cc2ccc(F)cc2)c2ccccc12 [15p] | 157 ± 4 | >100 |  |  | 5 |
| CCCCCn1cc(C(=O)N2CCCC[C@H]2C(=O)OC)c2ccccc21 [16a] | 114 ± 6 | 6 | 644 ± 13 |  |  |
| CCCCCn1cc(C(=O)N2CCCC[C@@H]2C(=O)OC)c2ccccc21 [16b] | 273 ± 4 | >100 |  |  | 18 |
| COC(=O)[C@@H]1CCCCN1C(=O)c1cn(CCCCCF)c2ccccc12 [16c] | 84.1 ± 1.9 | 8 | 716 ± 16 |  |  |
| COC(=O)[C@H]1CCCCN1C(=O)c1cn(CCCCCF)c2ccccc12 [16d] | 251 ± 7 | >100 |  |  | 24 |

| Compound | Ki (CB2R) [nM] | SI Ki CB1R/Ki CB2R (CB2R) | Ki (CB1R) [nM] | CB2R % at 1 μM (CB2R) [%] | CB1R % at 1 μM (CB1R) [%] |
| --- | --- | --- | --- | --- | --- |
| COC(=O)[C@@H]1CCCCN1C(=O)c1cn(CC2CCCCC2)c2ccccc12 [16e] | 45.1 ± 1.7 | 3 | 122 ± 8 |  |  |
| COC(=O)[C@H]1CCCCN1C(=O)c1cn(CC2CCCCC2)c2ccccc12 [16f] | 93.1 ± 3.3 | >100 |  |  | 37 |
| COC(=O)[C@@H]1CCCCN1C(=O)c1cn(Cc2ccc(F)cc2)c2ccccc12 [16g] | 22.5 ± 1.1 | 4 | 90.3 ± 2.3 |  |  |
| COC(=O)[C@H]1CCCCN1C(=O)c1cn(Cc2ccc(F)cc2)c2ccccc12 [16h] | 109 ± 4 | >100 |  |  | 35 |
| COC(=O)[C@@H]1CCCCN1C(=O)c1nn(CCCCCF)c2ccccc12 [16k] | 10.6 ± 0.7 | 37 | 392 ± 5 |  |  |
| COC(=O)[C@H]1CCCCN1C(=O)c1nn(CCCCCF)c2ccccc12 [16l] | 127 ± 5 | >100 |  |  | 5 |
| COC(=O)[C@@H]1CCCCN1C(=O)c1nn(CC2CCCCC2)c2ccccc12 [16m] | 5.2 ± 0.4 | 31 | 162 ± 3 |  |  |
| COC(=O)[C@H]1CCCCN1C(=O)c1nn(CC2CCCCC2)c2ccccc12 [16n] | 164 ± 5 | >100 |  |  | 3 |
| COC(=O)[C@@H]1CCCCN1C(=O)c1nn(Cc2ccc(F)cc2)c2ccccc12 [16o] | 4.1 ± 0.12 | 16 | 65.4 ± 2.4 |  |  |
| COC(=O)[C@H]1CCCCN1C(=O)c1nn(Cc2ccc(F)cc2)c2ccccc12 [16p] | 48.4 ± 1.8 | >100 |  |  |  |
| CCCCCn1cc(C(=O)N2CCC[C@H]2C(N)=O)c2ccccc21 [17a] |  |  |  | 24 | 2 |
| CCCCCn1cc(C(=O)N2CCC[C@@H]2C(N)=O)c2ccccc21 [17b] |  |  |  | 17 | 3 |
| NC(=O)[C@@H]1CCCN1C(=O)c1cn(CCCCCF)c2ccccc12 [17c] |  |  |  | 15 | 1 |
| NC(=O)[C@H]1CCCN1C(=O)c1cn(CCCCCF)c2ccccc12 [17d] |  |  |  | 16 | 5 |
| NC(=O)[C@@H]1CCCN1C(=O)c1cn(CC2CCCCC2)c2ccccc12 [17e] | 288 ± 7 | >100 |  |  | 6 |
| NC(=O)[C@H]1CCCN1C(=O)c1cn(CC2CCCCC2)c2ccccc12 [17f] | 411 ± 16 | >100 |  |  | 3 |
| NC(=O)[C@@H]1CCCN1C(=O)c1cn(Cc2ccc(F)cc2)c2ccccc12 [17g] |  |  |  | 20 | 3 |
| NC(=O)[C@H]1CCCN1C(=O)c1cn(Cc2ccc(F)cc2)c2ccccc12 [17h] |  |  |  | 7 | 4 |
| CCCCCn1nc(C(=O)N2CCC[C@H]2C(N)=O)c2ccccc21 [17i] |  |  |  | 31 | 2 |
| CCCCCn1nc(C(=O)N2CCC[C@@H]2C(N)=O)c2ccccc21 [17j] |  |  |  | 28 | 3 |

| Compound | Ki (CB2R) [nM] | SI Ki CB1R/Ki CB2R (CB2R) | Ki (CB1R) [nM] | CB2R % at 1 μM (CB2R) [%] | CB1R % at 1 μM (CB1R) [%] |
| --- | --- | --- | --- | --- | --- |
| NC(=O)[C@@H]1CCCN1C(=O)c1nn(CCCCCF)c2ccccc12 [17k] |  |  |  | 17 | 2 |
| NC(=O)[C@H]1CCCN1C(=O)c1nn(CCCCCF)c2ccccc12 [17l] |  |  |  | 25 | 4 |
| NC(=O)[C@@H]1CCCN1C(=O)c1nn(CC2CCCCC2)c2ccccc12 [17m] |  |  |  | 27 | 1 |
| NC(=O)[C@H]1CCCN1C(=O)c1nn(CC2CCCCC2)c2ccccc12 [17n] |  |  |  | 28 | 2 |
| NC(=O)[C@@H]1CCCN1C(=O)c1nn(Cc2ccc(F)cc2)c2ccccc12 [17o] | 628 ± 21 | >100 |  |  | 4 |
| NC(=O)[C@H]1CCCN1C(=O)c1nn(Cc2ccc(F)cc2)c2ccccc12 [17p] |  |  |  | 12 | 4 |
| CCCCCn1cc(C(=O)N2CCCC[C@H]2C(N)=O)c2ccccc21 [18a] | 111 ± 6 | >100 |  |  | 3 |
| CCCCCn1cc(C(=O)N2CCCC[C@@H]2C(N)=O)c2ccccc21 [18b] | 136 ± 5 | >100 |  |  | 10 |
| NC(=O)[C@@H]1CCCCN1C(=O)c1cn(CCCCCF)c2ccccc12 [18c] | 132 ± 4 | >100 |  |  | 7 |
| NC(=O)[C@H]1CCCCN1C(=O)c1cn(CCCCCF)c2ccccc12 [18d] | 169 ± 6 | >100 |  |  | 15 |
| NC(=O)[C@@H]1CCCCN1C(=O)c1cn(Cc2ccc(F)cc2)c2ccccc12 [18g] | 115 ± 5 | >100 |  |  | 21 |
| NC(=O)[C@H]1CCCCN1C(=O)c1cn(Cc2ccc(F)cc2)c2ccccc12 [18h] | 207 ± 9 | >100 |  |  | 3 |
| CCCCCn1nc(C(=O)N2CCCC[C@H]2C(N)=O)c2ccccc21 [18i] | 91.8 ± 4.9 | >100 |  |  | 2 |
| CCCCCn1nc(C(=O)N2CCCC[C@@H]2C(N)=O)c2ccccc21 [18j] | 145 ± 6 | >100 |  |  | 2 |
| NC(=O)[C@@H]1CCCCN1C(=O)c1nn(CCCCCF)c2ccccc12 [18k] | 151 ± 6 | >100 |  |  | 3 |
| NC(=O)[C@H]1CCCCN1C(=O)c1nn(CCCCCF)c2ccccc12 [18l] | 143 ± 5 | >100 |  |  | 3 |
| NC(=O)[C@@H]1CCCCN1C(=O)c1nn(CC2CCCCC2)c2ccccc12 [18m] | 59.5 ± 2.8 | >100 |  |  | 21 |
| NC(=O)[C@H]1CCCCN1C(=O)c1nn(CC2CCCCC2)c2ccccc12 [18n] | 112 ± 4 | >100 |  |  | 26 |
| COc1ccc2c(c1)c(CCN1CCOCC1)c(C)n2C(=O)c1cccc(Cl)c1Cl [GW405833, reference compound] | 5.8 ± 0.4 | 822 | 4770 ± 110 |  |  |
| CCc1c(C(=O)NN2CCCCC2)nn(-c2ccc(Cl)cc2Cl)c1-c1ccc(Br)cc1 [Surinabant, reference compound] | 400 ± 6 | 0.0075 | 3 ± 0.2 |  |  |
